Converted amounts (≈) assume the structure as drawn.
What was measured:
S. aureus = assay: Microbroth dilution MIC assay; assay type: cell-based, Staphylococcus aureus
Description: (§1) The strains used are isolates from either the Merck Culture Collection, the Merck Clinical Culture Collection or from Clinical Trials. The strain of Haemophilus influenzae is a mouse pathogen used for in vivo testing at Merck. The Escherichia coli strain is a cell wall permeable strain. The Candida albicans strain is used as a control. These culture are maintained as frozen stocks at −80° C. in a.) Microbank beads; b.) 2× Skim Milk; or c.) in 2× Trypticase Soy Broth+15% glycerol/50% horse serum (Haemophilus and Streptococcus pneumoniae).
(§2) Selected isolates are subcultured onto either Chocolate Agar Plates (Haemophilus influenzae), onto Trypticase Soy+5% Sheep Blood Agar Plates (Streptococcus pneumoniae, Staphylococcus aureus, Escherichia coli, Enterococcus, Bacillus) or onto Sabouraud Dextrose Agar (Candida) and incubated at 35° C. Haemophilus and Streptococcus pneumoniae are incubated in 5% CO2; all other isolates are incubated in ambient air. Isolates are subcultured 2× before assay.
(§3) Colonies are selected from plates and used to prepare an inoculum equivalent to a 0.5 McFarland standard in Trypticase Soy Broth. An inoculum with a density equivalent to a 1.0 McFarland standard is prepared for Streptococcus pneumoniae. The inoculum density for all cultures is −10^8 CFU/mL in TSB. This TSB inoculum is diluted 1:10 in sterile saline (4 mL inoculum+36 mL saline; equivalent to −10^7 CFU/mL) and kept on ice until used to inoculate microtiter plates.
All wells of 96-well microtiter plates (Dynex) are filled with 100 TL media. Haemophilus test media plates are prepared to test Haemophilus influenzae; Cation-Adjusted Mueller Hinton+5% Lysed Horse Blood plates are prepared to test Streptococcus pneumoniae; Cation-Adjusted Mueller Hinton Broth plates are prepared to test Enterococcus, Staphylococcus aureus, Escherichia coli and Bacillus subtilis. RPMI 1640 is used to test Candida The MICs against S. aureus Smith are determined in Cation-adjusted Mueller Hinton and in Cation-Adjusted Mueller Hinton+50% Human Serum to determine if the compound is inactivated by some component in serum (indicated by an increase in the MIC). Filled plates are wrapped in plastic bags (to minimize evaporation), stored frozen and thawed before use.
The compounds are prepared on a weight basis. Compounds are prepared to 2 mg/mL in 100% DMSO, then diluted to 1 mg/mL in a 1:1 dilution of DMSO/2×CAMHB (final concentration=50% DMSO/50% CAMHB). […]
(§4) All wells of microtiter plates are inoculated with (saline-diluted) culture using the MIC 2000 System, an automated plate inoculating device which delivers an inoculum of 1.5 TL per well. […] Results are recorded after 22-24-hours' incubation. Plates were read to no growth.

E. faecalis = assay: Microbroth dilution MIC assay; assay type: cell-based, Enterococcus faecalis; details: various strains of E. faecalis
Description: as §1, §2
(§5) Colonies are selected from plates and used to prepare an inoculum equivalent to a 0.5 McFarland standard in Trypticase Soy Broth. […]
as §4

E. faecium = assay: Microbroth dilution MIC assay; assay type: cell-based, Enterococcus faecium
Description: as §1, §2, §3
All wells of 96-well microtiter plates (Dynex) are filled with 100 TL media. […]
as §4

B. subtilis = assay: Microbroth dilution MIC assay; assay type: cell-based, Bacillus subtilis; details: various strains of B. subtilis
Description: as §1, §2, §5, §4

S. pneumoniae = assay: Microbroth dilution MIC assay; assay type: cell-based, Streptococcus pneumoniae; details: various strains of S. pneumoniae
Description: as §1, §2, §5, §4

E. coli = assay: Microbroth dilution MIC assay; assay type: cell-based, Escherichia coli; details: various strains of E. coli; cell wall permeable strain
Description: as §1, §2, §5, §4

S. epidermidis = assay: Microbroth dilution MIC assay; assay type: cell-based, Staphylococcus epidermidis; details: macrolide-resistant S. epidermidis
[1] = test system: vancomycin-resistant Enterococcus sp. (VRE); assay: Microbroth dilution MIC assay; assay type: cell-based
Description: as §1, §2, §5, §4

[2] = Microbroth dilution MIC assay, all test strains pooled; assay type: cell-based; details: range over all test strains, including resistant ones; NCCLS guidelines; read-out: minimum inhibitory concentration (MIC)
Description: as §1, §2, §5, §4

In the case of `C[C@@]12C[C@]34C=CC(=O)[C@](C)(CCC(=O)Nc5c(O)ccc(C(=O)O)c5O)C3[C@@H](CC1C4)O2` (some centres unmarked) [Compound I], the antibacterial activity (S. aureus; linezolid-resistant S. aureus) is reported as “demonstrates antibacterial activity”, the antibacterial activity (S. aureus; macrolide-resistant S. aureus) is reported as “demonstrates antibacterial activity” and the antibacterial activity (S. aureus; methicillin-resistant S. aureus (MRSA)) is reported as “demonstrates antibacterial activity”. For the same molecule, the antibacterial activity (S. aureus; various strains of S. aureus) was “demonstrates antibacterial activity”, the antibacterial activity (E. faecalis) was “demonstrates antibacterial activity” and the antibacterial activity (E. faecium; linezolid-resistant E. faecium) was “demonstrates antibacterial activity”. The antibacterial activity (E. faecium; multidrug-resistant E. faecium) was “demonstrates antibacterial activity”, the antibacterial activity (E. faecium; various strains of E. faecium) was “demonstrates antibacterial activity” and the antibacterial activity (B. subtilis) was “demonstrates antibacterial activity”. The antibacterial activity (S. pneumoniae) was “demonstrates antibacterial activity”, the antibacterial activity (E. coli) was “demonstrates antibacterial activity” and the antibacterial activity (S. epidermidis) was “demonstrates antibacterial activity”. The antibacterial activity [1] was “demonstrates antibacterial activity” and the MIC [2] was 0.1 to 32 µg/mL (≈ 0.227 to 72.5 µM).

From patent US7745644B2, “Antibiotic compounds” (Merck Sharp & Dohme Corp., priority 2003, dated 2010)
